Measured values taken from US20210198317A1, “REACTIVE OXYGEN PRODUCTION INHIBITOR AND/OR SCAVENGING PROMOTER” (NATIONAL UNIVERSITY CORPORATION OKAYAMA UNIVERSITY, priority 2018, published 2021).
“Also recorded” adds a separate entry of the source.

Columns and labels:
[1] = OxiSelect ORAC Activity Assay Kit: antioxidant activity against peroxy radicals (AAPH); type: biochemical; details: for antioxidant action against peroxy radicals (fluorescence intensity): every 5 minutes for 60 minutes; for Antioxidant Activity Against Peroxy Radicals (NetAUC): AUCsample minus AUCblank, 60 minutes
Method: In this Example, HRG was investigated for its antioxidant action against peroxy radicals. As a positive control, Trolox was used. Antioxidant activity against peroxy radicals was measured with OxiSelect™ ORAC Activity Assay Kit (Cell Biolabs, San Diego, Calif.) in accordance with the specifications. The fluorescent probe solution was added to a sample solution, the mixture was incubated at 37° C. for 30 minutes, and added with 2,2′-azobis-(2-methylpropionamidine) dihydrochloride (AAPH), followed by immediate measurement of fluorescence intensity (Ex/Em=485 nm/538 nm). In the presence of peroxy radicals, the fluorescence of the fluorescent probe is quenched, and the quenching is inhibited when antioxidant activity is present. A. For each of 0 μM to 6.25 μM Trolox sample solutions, their fluorescence intensities (Ex/Em=485 nm/538 nm) were measured every 5 minutes for 60 minutes in accordance with the above-mentioned measurement method. […] B. For each of 0 μM to 1 μM HRG sample solutions, their fluorescence intensity (Ex/Em=485 nm/538 nm) were measured every 5 minutes for 60 minutes in accordance with the above-mentioned measurement method. […] The difference between the area under the curve of the fluorescence intensity of Trolox or HRG (AUCsample) and the area under the curve of the blank (AUCblank) was measured every 5 minutes for 60 minutes after the initiation of reaction to calculate NetAUC. […] In this Example, the histidine-rich peptide was investigated for its antioxidant action against peroxy radicals in the same manner as in Example 4. A. The fluorescent probe solution was added to each solution of HRG (1 μM), the histidine-rich peptide (6 μM), or the control peptide (6 μM), and antioxidant activity against peroxy radicals was measured by the same technique as that of Example 4. […] B. The fluorescent probe solution was added to histidine-rich peptide solutions (0.1 μM to 10 μM), and antioxidant activity against peroxy radicals was measured by the same technique as that of Example 4. […] The difference between the area under the curve of the fluorescence intensity of the histidine-rich peptide or HRG (AUCsample) and the area under the curve of the blank (AUCblank) was measured every 5 minutes for 60 minutes after the initiation of reaction to calculate NetAUC.

[2] = OxiSelect HORAC Activity Assay Kit: antioxidant activity against hydroxy radicals (cell-free, Fenton's reagent); type: biochemical; details: for Antioxidant Activity Against Hydroxy Radicals (NetAUC): AUCsample minus AUCblank, 60 minutes; for antioxidant action against hydroxy radicals (fluorescence intensity): every 5 minutes for 60 minutes
Method: Antioxidant activity against hydroxy radicals was measured with OxiSelect™ HORAC Activity Assay Kit (Cell Biolabs, San Diego, Calif.) in accordance with the specifications. A fluorescent probe solution was added to a sample solution, the mixture was incubated at 37° C. for 30 minutes, and a hydroxy radical initiator (H2O2) and Fenton's reagent were added, followed by the measurement of a fluorescence intensity (Ex/Em=485 nm/538 nm) based on the oxidation of the fluorescent probe by hydroxy radicals via hydrogen atom transfer (HAT). In the presence of hydroxy radicals, the fluorescence of the fluorescent probe is quenched, and the quenching is inhibited when antioxidant activity is present. As the sample solution, 0.01 μM to 1 μM HRG solutions, or 50 μM to 100 μM GA solutions were used. A. For each of the 50 μM to 100 μM gallic acid (GA) sample solutions, their fluorescence intensities (Ex/Em=485 nm/538 nm) were measured every 5 minutes for 60 minutes in accordance with the above-mentioned measurement method. The fluorescence intensities of GA and a blank were plotted on the vertical axis, and the measurement times were plotted on the horizontal axis. […] B. For each of the 0 μM to 1 μM HRG sample solutions, their fluorescence intensities (Ex/Em=485 nm/538 nm) were measured every 5 minutes for 60 minutes in accordance with the above-mentioned measurement method. The fluorescence intensities of HRG and a blank were plotted on the vertical axis, and the measurement times were plotted on the horizontal axis. […] The difference between the area under the curve of the fluorescence intensity of GA or HRG (AUCsample) and the area under the curve of the blank (AUCblank) was measured every 5 minutes for 60 minutes after the initiation of reaction, and NetAUC was calculated. […] In this Example, the histidine-rich peptide (SEQ ID NO: 10) was investigated for its antioxidant action against hydroxy radicals by the same technique as that of Example 1. A control peptide (SEQ ID NO: 11) was similarly investigated. A. The fluorescent probe solution was added to each solution of HRG (1 μM), the histidine-rich peptide (6 μM), or the control peptide (6 μM), and antioxidant activity against hydroxy radicals was measured by the same technique as that of Example 1. […] B. The fluorescent probe solution was added to histidine-rich peptide solutions (0.1 μM to 10 μM), and the resultant mixtures were measured for their antioxidant activity against hydroxy radicals by the same technique as that of Example 1. […] The difference between the area under the curve of the fluorescence intensity of the histidine-rich peptide or HRG (AUCsample) and the area under the curve of the blank (AUCblank) was measured every 5 minutes for 60 minutes after the initiation of reaction to calculate NetAUC.

[3] = Calorimetry (MicroCal iTC200) metal ion-binding property, divalent metal ions; details: for binding to divalent metal ions: iron, copper, cobalt, zinc, nickel, FIG. 4A-6B
Method: (§1) In this Example, in order to investigate the binding properties of HRG to metal ions serving as essential factors in Fenton' s reaction, an experiment was performed using calorimetry. MicroCal iTC200 was used as a calorimeter, and binding properties between various metals (iron, copper, cobalt, zinc, and nickel) and samples were measured in accordance with the specifications.

[4] = Calorimetry (MicroCal iTC200) metal ion-binding property, trivalent iron ions; details: FIG. 4A, 5A, 6A
Method: as §1

[5] = DetectX Superoxide Dismutase (SOD) Colorimetric Activity Kit: antioxidant action against superoxide (xanthine/xanthine oxidase); type: biochemical; details: 0.01 μM to 1 μM; room temperature 20 minutes; absorbance 450 nm; FIG. 9A-B
From the text: In this Reference Example, the antioxidant action of HRG against superoxide was investigated through use of DetectX Superoxide Dismutase (SOD) Colorimetric Activity Kit (Arbor Assays, Ann Arbor, Mich.). HRG used was plasma-derived HRG generated by the method described in Example 1. Superoxide anion (O^2−) is generated by a xanthine/xanthine oxidase (XOD) system, and is detected through use of a chromogen solution. Superoxide dismutase (SOD) is a metalloenzyme that catalyzes the conversion of O^2− into an oxygen molecule and hydrogen peroxide. The presence of SOD decreases the O^2− concentration to decrease a dye signal.
In accordance with the specifications, xanthine oxidase, and a substrate were added to 0.01 μM to 1 μM HRG solutions, and the mixtures were incubated at room temperature for 20 minutes. After that, the reaction solutions were each measured for its absorbance at a wavelength of 450 nm. As a control, measurement was similarly performed for SOD.

[6] = OxiSelect Catalase Activity Assay Kit: catalase-like activity; type: biochemical; details: 0.01 μM to 1 μM; FIG. 10A-B
Method: In this Reference Example, whether HRG had catalase-like activity was investigated through use of OxiSelect™ Catalase Activity Assay Kit (Cell Biolabs, San Diego, Calif.). HRG used was plasma-derived HRG generated by the method described in Example 1. A prescribed amount of hydrogen peroxide was allowed to react with 0.01 μM to 1 μM HRG. Next, the remaining hydrogen peroxide was incubated in the presence of HRP with a probe (colorimetric measurement: DHBS+AAP; and fluorescence measurement: ADHP (10-Acetyl-3,7-dihydroxyphenoxazine)) at 37° C. for 30 minutes, and the resulting fluorescence intensity (Ex/Em=544 nm/590 nm) was measured. As a control, measurement was similarly performed for catalase.

[7] = overall conclusion from the results

binding to trivalent iron ions [4]	Molecule	antioxidant activity against hydroxy radicals ([2]; 6 μM, FIG. 3A)	Antioxidant Activity Against Hydroxy Radicals (NetAUC) ([2]; FIG. 3C)	antioxidant activity against hydroxy radicals [2, 7]	binding to divalent metal ions [3]	antioxidant activity against peroxy radicals ([1]; 6 μM, FIG. 8A)	Antioxidant Activity Against Peroxy Radicals (NetAUC) ([1]; FIG. 8C)	also measured
–	Cc1c(C)c2c(c(C)c1O)CCC(C)(C(=O)O)O2 (stereo not drawn) [Trolox, reference compound]	–	–	–	–	–	–	antioxidant action against peroxy radicals (fluorescence intensity) ([1]; 0 μM to 6.25 μM sample solutions, FIG. 7A): antioxidant action against peroxy radicals was recognized in a manner dependent on the concentration of Trolox
does not bind to trivalent iron ions	GHHPHGHHPH [histidine-rich peptide]	potent antioxidant actions	potent antioxidant action against hydroxy radicals	potent antioxidant activity against hydroxy radicals	bind to divalent metal ions (iron, copper, cobalt, zinc, and nickel)	an antioxidant action, which was slightly weaker	weak as compared to HRG	antioxidant activity against hydroxy radicals ([2]; 0.1 μM to 10 μM, FIG. 3B): potent antioxidant activity in a concentration-dependent manner; antioxidant activity against peroxy radicals ([1]; 0.1 μM to 10 μM, FIG. 8B): antioxidant activity in a slightly concentration-dependent manner
–	O=C(O)c1cc(O)c(O)c(O)c1 [GA, gallic acid, reference compound]	–	–	–	–	–	–	antioxidant action against hydroxy radicals (fluorescence intensity) ([2]; 50 μM to 100 μM sample solutions, FIG. 2A): antioxidant action against hydroxy radicals was recognized in a manner dependent on the concentration of GA
did not bind to trivalent iron ions	HRG: Histidine-rich glycoprotein, plasma protein of 507 amino acids (SEQ ID NO: 1), generated from human plasma as a starting material (protein, listed as Homo sapiens) VSPTDCSAVEPEAEKALDLINKRRRDGYLFQLLRIADAHLDRVENTTVYYLVLDVQESDCSVLSRKYWNDCEPPDSRRPSEIVIGQCKVIATRHSHESQDLRVIDFNCTTSSVSSALANTKDSPVLIDFFEDTERYRKQANKALEKYKEENDDFASFRVDRIERVARVRGGEGTGYFVDFSVRNCPRHHFPRHPNVFGFCRADLFYDVEALDLESPKNLVINCEVFDPQEHENINGVPPHLGHPFHWGGHERSSTTKPPFKPHGSRDHHHPHKPHEHGPPPPPDERDHSHGPPLPQGPPPLLPMSCSSCQHATFGTNGAQRHSHNNNSSDLHPHKHHSHEQHPHGHHPHAHHPHEHDTHRQHPHGHHPHGHHPHGHHPHGHHPHGHHPHCHDFQDYGPCDPPPHNQGHCCHGHGPPPGHLRRRGPGKGPRPFHCRQIGSVYRLPPLRKGEVLPLPEANFPSFPLPHHKHPLKPDNQPFPQSVSESCPGKFKSGFPQVSMFFTHTFPK	–	potent antioxidant action against hydroxy radicals	potent antioxidant activity against hydroxy radicals	bound to divalent metal ions (iron, copper, cobalt, zinc, and nickel)	–	had an antioxidant action against peroxy radicals	antioxidant action against hydroxy radicals (fluorescence intensity) ([2]; 0 μM to 1 μM sample solutions, FIG. 2B): antioxidant action against hydroxy radicals was recognized in a manner dependent on the concentration of HRG; antioxidant activity against hydroxy radicals ([2]; 1 μM, FIG. 3A): potent antioxidant actions; Antioxidant Activity Against Hydroxy Radicals (NetAUC) ([2]; various concentrations, FIG. 2C): potent antioxidant action against hydroxy radicals; number of divalent metal ions bound per molecule ([3]; FIG. 4A): a large number of divalent metal ions bind to one molecule of HRG; antioxidant action against peroxy radicals (fluorescence intensity) ([1]; 0 μM to 1 μM sample solutions, FIG. 7B): antioxidant action against peroxy radicals was recognized in a manner dependent on the concentration of HRG; antioxidant activity against peroxy radicals ([1]; 1 μM, FIG. 8A): potent antioxidant action; Antioxidant Activity Against Peroxy Radicals (NetAUC) ([1]; various concentrations, FIG. 7C): has an antioxidant action against peroxy radicals; antioxidant activity against peroxy radicals [1, 7]: showed an antioxidant activity against peroxy radicals; scavenging activity / antioxidant action against superoxide [5]: no scavenging activity against superoxide; also recorded: hardly showed an antioxidant action against superoxide; also recorded: no antioxidant action against superoxide; catalase-like activity [6]: no catalase-like activity

Molecule	binding to trivalent iron ions [4]	antioxidant activity against hydroxy radicals ([2]; 6 μM, FIG. 3A)	Antioxidant Activity Against Hydroxy Radicals (NetAUC) ([2]; FIG. 3C)	antioxidant activity against hydroxy radicals [2, 7]	binding to divalent metal ions [3]	antioxidant activity against peroxy radicals ([1]; 6 μM, FIG. 8A)	Antioxidant Activity Against Peroxy Radicals (NetAUC) ([1]; FIG. 8C)	also measured
GAAPAGAAPA (Standard peptide) [control peptide, reference compound]	did not bind to any of the various metal ions	no antioxidant action	–	–	did not bind to any of the various metal ions	no antioxidant action	–	–
